From ChEMBL document CHEMBL1149918, “Novel 1,5-benzodiazepindione gastrin/CCKB antagonists” (Bioorg Med Chem Lett, 1997)

How the values were obtained:
[1] = Compound was tested for plasma clearance in rat; type: ADME, organism-based; conditions: read-out: Clp
[2] = Oral bioavailability in rat; type: ADME, organism-based; conditions: in vivo
[3] = molecular target: T1, Gastrin/cholecystokinin type B receptor (Homo sapiens, UniProt P32239); assay: Tested for its selectivity against human Cholecystokinin type B receptor isolated from a human temporal cortex cDNA library and stably transfected into a HeLa cell line. (n=1); type: cell-based
T1 sequence (P32239 whole entry): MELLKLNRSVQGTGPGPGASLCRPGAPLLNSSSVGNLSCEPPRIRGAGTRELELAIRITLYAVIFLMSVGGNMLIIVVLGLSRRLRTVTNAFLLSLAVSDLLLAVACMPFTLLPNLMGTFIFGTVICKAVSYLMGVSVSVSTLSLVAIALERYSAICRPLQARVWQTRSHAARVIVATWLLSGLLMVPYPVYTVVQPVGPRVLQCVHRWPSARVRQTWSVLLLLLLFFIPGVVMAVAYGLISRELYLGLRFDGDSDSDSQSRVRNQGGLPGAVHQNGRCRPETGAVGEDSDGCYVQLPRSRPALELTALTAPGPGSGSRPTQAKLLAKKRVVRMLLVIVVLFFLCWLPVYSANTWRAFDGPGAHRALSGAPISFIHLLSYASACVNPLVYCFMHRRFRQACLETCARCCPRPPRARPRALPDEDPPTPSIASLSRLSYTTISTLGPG

[4] = molecular target: T2, Cholecystokinin receptor type A (Homo sapiens, UniProt P32238); assay: Tested for its selectivity against human Cholecystokinin type A receptor isolated from a human gallbladder cDNA library and stably transfected into a COSM6 cell line; (n=1); type: cell-based
T2 sequence (P32238 whole entry): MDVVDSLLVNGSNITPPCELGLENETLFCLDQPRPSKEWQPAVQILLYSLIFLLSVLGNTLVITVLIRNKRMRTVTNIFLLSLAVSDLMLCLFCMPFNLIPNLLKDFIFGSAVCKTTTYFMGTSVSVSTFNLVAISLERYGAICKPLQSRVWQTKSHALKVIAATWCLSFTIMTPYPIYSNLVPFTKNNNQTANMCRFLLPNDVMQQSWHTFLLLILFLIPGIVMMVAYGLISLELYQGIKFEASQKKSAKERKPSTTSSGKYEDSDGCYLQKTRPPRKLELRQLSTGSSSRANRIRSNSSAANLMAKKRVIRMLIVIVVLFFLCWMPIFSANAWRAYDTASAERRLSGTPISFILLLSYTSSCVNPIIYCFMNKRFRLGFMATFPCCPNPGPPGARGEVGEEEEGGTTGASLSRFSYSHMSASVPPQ

[5] = molecular target: T3, Cholecystokinin receptor type A (Cavia porcellus) (UniProt Q63931); assay: Tested for selectivity toward Cholecystokinin type A receptor by guinea -pig isolated ileum longitudinal muscle-myenteric plexus (GPI) assay; type: tissue-based
T3 sequence (whole entry): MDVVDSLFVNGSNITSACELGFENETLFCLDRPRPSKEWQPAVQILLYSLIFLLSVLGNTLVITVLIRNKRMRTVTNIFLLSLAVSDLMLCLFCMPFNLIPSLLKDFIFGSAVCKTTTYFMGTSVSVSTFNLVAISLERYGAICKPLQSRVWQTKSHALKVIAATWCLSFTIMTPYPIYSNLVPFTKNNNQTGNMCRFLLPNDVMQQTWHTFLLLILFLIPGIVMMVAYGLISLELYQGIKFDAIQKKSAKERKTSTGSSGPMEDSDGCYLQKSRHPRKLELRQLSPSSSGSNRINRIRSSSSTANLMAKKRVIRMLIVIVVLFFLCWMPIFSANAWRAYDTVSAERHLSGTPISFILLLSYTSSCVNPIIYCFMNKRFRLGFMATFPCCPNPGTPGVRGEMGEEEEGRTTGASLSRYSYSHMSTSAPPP

[6] = molecular target: T4, Gastrin/cholecystokinin type B receptor (Rattus norvegicus) (UniProt P30553); assay: Tested for selectivity toward gastrin receptor by the ability to block pentagastrin stimulated acid secretion from isolated rat gastric mucosa (RGM); type: tissue-based
T4 sequence (whole entry): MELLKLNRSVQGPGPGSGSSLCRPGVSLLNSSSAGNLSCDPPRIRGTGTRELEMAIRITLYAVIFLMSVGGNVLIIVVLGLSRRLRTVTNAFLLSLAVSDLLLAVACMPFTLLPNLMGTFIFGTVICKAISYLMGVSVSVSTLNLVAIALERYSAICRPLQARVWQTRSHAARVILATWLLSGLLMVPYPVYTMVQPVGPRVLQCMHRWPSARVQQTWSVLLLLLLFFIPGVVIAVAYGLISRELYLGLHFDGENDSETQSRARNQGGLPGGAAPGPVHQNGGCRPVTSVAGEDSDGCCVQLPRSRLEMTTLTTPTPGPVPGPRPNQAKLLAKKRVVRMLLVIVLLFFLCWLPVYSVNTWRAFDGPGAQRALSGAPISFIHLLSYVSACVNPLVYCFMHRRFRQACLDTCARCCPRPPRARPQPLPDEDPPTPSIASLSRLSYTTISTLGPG

[7] = molecular target: T2, Cholecystokinin receptor type A; assay: Tested for its selectivity against human Cholecystokinin type A receptor isolated from a human gallbladder cDNA library and stably transfected into a COSM6 cell line (n=1); type: cell-based
Rattus norvegicus [8] = assay: Compound was tested for its ability to inhibit acid secretion in the pentagastrin stimulated gastric fistula rat model by intravenous dose of 1 mg/kg; type: functional; conditions: Stomach
Rattus norvegicus [9] = assay: Compound was tested for its ability to inhibit acid secretion in the pentagastrin stimulated gastric fistula rat model by intra gastric dose of 1 mg/kg; type: functional; conditions: Stomach
[10] = molecular target: T4, Gastrin/cholecystokinin type B receptor (Rattus norvegicus); conditions: Gastric mucosa
Rattus norvegicus [11] = assay: Tested for its ability to inhibit acid secretion in the pentagastrin stimulated gastric fistula rat model by intravenous dose of 0.1 mg/kg; type: functional; conditions: Stomach
Rattus norvegicus [12] = assay: Tested for its ability to inhibit acid secretion in the pentagastrin stimulated gastric fistula rat model by intra gastric dose of 1 mg/kg; type: functional; conditions: Stomach
Rattus norvegicus [13] = assay: Tested for its ability to inhibit acid secretion in the pentagastrin stimulated gastric fistula rat model by intravenous dose of 0.3 mg/kg; type: functional; conditions: Stomach
Rattus norvegicus [14] = assay: Tested for its ability to inhibit acid secretion in the pentagastrin stimulated gastric fistula rat model by intra gastric dose of 0.3 mg/kg; type: functional; conditions: Stomach

Compound	clearance [1] [mL/min/kg]	bioavailability [2] [%]	Ki [3] [nM]	Ki [4] [nM]	pKB [5]	pKB [6]	also measured
O=C(Nc1ccc(F)cc1)NC1C(=O)N(CC(=O)N2CC3CCC(CC3)C2)c2ccccc2N(c2ccccc2F)C1=O (racemic)	28	7	0.398	10			
O=C(Nc1cccc(C(=O)O)c1)NC1C(=O)N(CC(=O)N2CCCC2)c2ccccc2N(c2ccccc2)C1=O (stereo unspecified)					5.7	8.6	
O=C(Nc1ccc(F)cc1)NC1C(=O)N(CC(=O)N2CCCC2)c2ccccc2N(c2ccccc2F)C1=O (stereo unspecified)	15	68	12.6		6.8	8.6	Ki [7]: 50.1 nM; inhibition in vivo at 1 mg/kg (Rattus norvegicus [8]): 86%; inhibition in vivo at 1 mg/kg (Rattus norvegicus [9]): 73%
Cc1cccc(NC(=O)N[C@@H]2N=C(c3ccccc3)c3ccccc3N(C)C2=O)c1					7.7		pKB [10]: 7.6
O=C(Nc1cccc(C2N=NN=N2)c1)NC1C(=O)N(CC(=O)N2CCCC2)c2ccccc2N(c2ccccc2)C1=O (stereo unspecified)					7.4	10.3	inhibition in vivo at 0.1 mg/kg (Rattus norvegicus [11]): 79%; inhibition in vivo at 1 mg/kg (Rattus norvegicus [12]): 45%
O=C(Nc1ccc(F)cc1)N[C@H]1C(=O)N(CC(=O)N2CCCC2)c2ccccc2N(C2CCCCCC2)C1=O		10	1.58	79.4			
O=C(Nc1ccccc1)NC1C(=O)N(CC(=O)N2CCCC2)c2ccccc2N(c2ccccc2)C1=O (stereo unspecified)					7.3	8.5	
O=C(Nc1ccc(F)cc1)N[C@H]1C(=O)N(CC(=O)N2CCCC2)c2ccccc2N(C2CCCCC2)C1=O	36	23	2.51	79.4			inhibition in vivo at 0.3 mg/kg (Rattus norvegicus [13]): 60%; inhibition in vivo at 0.3 mg/kg (Rattus norvegicus [14]): 67%
